Assay results as given in patent US9416115B2, “Fused heterocyclic compounds as ion channel modulators” (Gilead Sciences, Inc., priority 2013, dated 2016).
Where two headings read alike, the source gives them in different places.

How the values were obtained:
Assay type in all cases: cell-based
[1] = target: T1, wild-type human cardiac sodium channel, hNav1.5 (Homo sapiens, UniProt Q14524); assay: Peak INa screening assay (tonic block and use-dependent block)
Experimental: (§1) The cardiac late sodium current (Late INa) and peak sodium current (Peak INa) assays are performed on an automated electrophysiology platform, QPatch 16X or QPatch HT (Sophion Bioscience, Copenhagen, Denmark) using the whole cell patch clamp technique to measure currents through the cell membrane. The assay uses an HEK293 (human embryonic kidney) cell line heterologously expressing the wild-type human cardiac sodium channel, hNav1.5, purchased from Millipore (Billerica, Mass.). No beta subunits were coexpressed with the Na channel alpha subunit. Cells are maintained with standard tissue culture procedures and stable channel expression is maintained with 400 μg/mL Geneticin in the culture medium. Experiments are carried out at 23-25° C.
(§2) For both the Late INa and Peak INa assays, series resistance compensation is set to 100% and series resistance and whole-cell compensation are performed automatically. Currents are digitized at 25 kHz and low-pass filtered at 5 kHz and stored in the Sophion Bioscience Oracle database (Sophion Bioscience, Copenhagen, Denmark). Analysis is performed using QPatch Assay software and data are compiled in Excel 2010 (Microsoft, Seattle, Wash., U.S.A.).
(§3) Compound stocks are routinely made by the Gilead Sample Bank in vials to 10 mM in dimethyl sulfoxide (DMSO). In some cases, when compounds are not soluble in DMSO, they are made in 100% ethanol. Stocks are sonicated as necessary. The extracellular solution for screening Late INa is composed of: 140 mM NaCl, 4 mM KCl, 1.8 mM CaCl2, 1 mM MgCl2, 10 mM HEPES and 10 mM Dextrose with pH adjusted to 7.35 using NaOH. The intracellular solution contains: 105 mM CsF, 20 mM CsCl, 10NaF, 2 mM EGTA, 10 mM HEPES and 10 mM Dextrose with pH adjusted to 7.35 with CsOH. Compounds are diluted in extracellular solution using a MicroLab Nimbus (Hamilton Robotics, Reno, Nev.) to between 0.3 and 3 μM in glass vials and transferred to glass well plates before robotic addition to the cells. The 0 mM Na extracellular solution (0Na-ECF) used at the end of each experiment for the Late INa and Peak INa assays to measure baseline current contains: 140 Choline-Cl; 4 mM KCl, 1.8 mM CaCl2; 1 mM MgCl2; 10 mM HEPES and 10 mM Dextrose with pH was adjusted to 7.35 with CsOH.
Compounds were evaluated for their effect Nav1.5 Peak INa. It is contemplated that the compounds of Formula I avoid significant block of peak INa. Since the peak INa in the cells used herein can be very large, introducing artifacts in the recording, the concentration of Na^+ in the bath can be reduced to 40 mM by isosmotic replacement of Na^+ with Choline (see below).
Tonic Block (TB) of Peak INa was measured using a voltage step to −20 mV from a holding potential of −100 mV at a low stimulation frequency of 0.1 Hz. Use-Dependent Block (UDB) of Peak INa was measured during pulse number 50 of a pulse train (−20 mV, 20 ms, 50 pulses, 3 Hz) from a holding potential of −100 mV.
The extracellular solution for screening Peak INa is composed of: 40 mM NaCl, 100 mM Choline-Cl, 4 mM KCl, 1.8 mM CaCl2, 1 mM MgCl2 10 mM HEPES and 10 mM Dextrose with pH adjusted to 7.35 using NaOH. The intracellular solution used for the Peak INa assay is the same as outlined for the Late INa assay (see above).
After establishing the whole cell recording configuration, channels were stimulated to open with low frequency (0.1 Hz) so that the recording can be monitored and the extent to which the recording has stabilized can be assessed.
The test compound is then applied at 1 or 3 μM and was added 2 times at 60 second intervals. After the second compound addition, a 200 second wait period was imposed to allow for equilibration. Voltage protocols for TB and UDB are were performed in the absence and presence of compound and TB and UDB are calculated with respect to the compound free condition. Both TB and UDB were analyzed by incorporating rundown correction for the peak INa.

[2] = target: T1, wild-type human cardiac sodium channel, hNav1.5; assay: Late INa screening assay (QPatch whole cell patch clamp, Tefluthrin-induced late current); conditions: HEK293 hNav1.5, percent block of late INa
Experimental: as §1, §2, §3
For the Late INa assay, sodium channels are activated every 10 seconds (0.1 Hz) by depolarizing the cell membrane to −20 mV for 250 milliseconds (ms) from a holding potential of −120 mV.
Compounds were tested to determine their activity in blocking the late sodium current. Late INa was generated by adding 10 μM Tefluthrin (pyrethroid) to the extracellular solution. For the purposes of the screening, Late INa is defined as the mean current between […] during the voltage step to −20 mV. After establishing the whole cell recording configuration, Late INa activator is added to each well 4 times over a 15 minute period so that the late component of the Na current reaches a stable value. Compounds were then added (typically at 0.3 or 1 μM), in the presence of the Late Na^+ activator, with 3 additions over the course of 5 minutes. Measurements were made at the end of exposure to the third compound addition and values were normalized to the current level when all Na^+ was removed from the extracellular solution after two additions of 0Na-ECF.
Results are reported as percent block of late INa and results were analyzed by incorporating rundown correction for the Late INa.

hNav1.1 (SCN1A) = hNav1.1 (SCN1A) (Homo sapiens, UniProt P35498); assay: Use-dependent inhibition of the CNS Nav1.1 sodium channel; conditions: use-dependent block, 25 Hz, pulse 20, read-out: Nav1.1 UDB 25 Hz 10 uM
Experimental: HEK-293 cells stably expressing wild-type (WT) hNav1.1 (SCN1A, NCBI# AB09354) were obtained from Millipore (Cat. # CYL3009) were used to record INa. Cells are maintained with standard tissue culture procedures and stable channel expression is maintained with 400 ug/mL G418 in the culture medium. Unless otherwise noted, all reagents are purchased from Sigma-Aldrich (St Louis, Mo., U.S.A.).
Assays measuring Use-Dependent Block (UDB) of Nav1.2 are performed on an automated electrophysiology platform, QPatch 16X or QPatch HT (Sophion Bioscience, Copenhagen, Denmark), using the whole cell patch clamp technique to measure currents through the cell membrane. Series resistance compensation is set to 100% and series resistance and whole-cell compensation are performed automatically. Currents stored in the Sophion Bioscience Oracle database (Sophion Bioscience, Copenhagen, Denmark). Analysis is performed using QPatch Assay software and data are compiled in Excel 2010 (Microsoft, Seattle, Wash., U.S.A.).
The internal (pipette) solution consists of (in mM) 105 CsF, 10 NaF, 20 CsCl, 2 EGTA, 10 HEPES, 10 Dextrose with a pH of 7.35 and osmolarity of 300 mOsmol/kg. The external (bath) solution contains in (mM): 145 NaCl, 4 KCl, 1.8 CaCl2, 1 MgCl2, 10 dextrose, 10 HEPES, with a pH of 7.35 and osmolarity of 310 mOsmol/kg. Experiments are carried out at 23-25° C.
Compound stocks are routinely made by the Gilead Sample Bank in vials to 10 mM in dimethyl sulfoxide (DMSO). In some cases, when compounds are not soluble in DMSO, they are made in 100% ethanol. Stocks are sonicated as necessary. […]
Cells are allowed to stabilize for 10 min after establishment of the whole-cell configuration before current is measured. The test compound is applied 2 times at 60 second intervals. After the second compound addition, a 200 second wait period was imposed to allow for equilibration. Leak currents are subtracted by using an online P/4 procedure and all currents are low-pass Bessel filtered at 5 kHz and digitized at […].
Use-dependent block of Nav1.2 peak current is measured during pulse number 20 of a voltage pulse train (0 mV, 20 ms, 20 pulses, 25 Hz) from a holding potential of −120 mV. Currents are normalized to the peak current recorded in response to the first pulse in each frequency train. The voltage protocol for UDB was performed in the absence and presence of compound and percentage inhibition was calculated with respect to the compound free condition. Results are presented as mean percentage inhibition and data analysis is performed using QPatch Assay Software 4.0, and Excel 2002 (Microsoft, Seattle, Wash., U.S.A.).

[3] = tonic block of Peak INa, 0.1 Hz, holding -100 mV, read-out: Peak TB 3 uM
[4] = use-dependent block of Peak INa, 3 Hz, pulse 50, read-out: Peak UDB 3 Hz 3 uM

T1 sequence (Q14524 whole entry): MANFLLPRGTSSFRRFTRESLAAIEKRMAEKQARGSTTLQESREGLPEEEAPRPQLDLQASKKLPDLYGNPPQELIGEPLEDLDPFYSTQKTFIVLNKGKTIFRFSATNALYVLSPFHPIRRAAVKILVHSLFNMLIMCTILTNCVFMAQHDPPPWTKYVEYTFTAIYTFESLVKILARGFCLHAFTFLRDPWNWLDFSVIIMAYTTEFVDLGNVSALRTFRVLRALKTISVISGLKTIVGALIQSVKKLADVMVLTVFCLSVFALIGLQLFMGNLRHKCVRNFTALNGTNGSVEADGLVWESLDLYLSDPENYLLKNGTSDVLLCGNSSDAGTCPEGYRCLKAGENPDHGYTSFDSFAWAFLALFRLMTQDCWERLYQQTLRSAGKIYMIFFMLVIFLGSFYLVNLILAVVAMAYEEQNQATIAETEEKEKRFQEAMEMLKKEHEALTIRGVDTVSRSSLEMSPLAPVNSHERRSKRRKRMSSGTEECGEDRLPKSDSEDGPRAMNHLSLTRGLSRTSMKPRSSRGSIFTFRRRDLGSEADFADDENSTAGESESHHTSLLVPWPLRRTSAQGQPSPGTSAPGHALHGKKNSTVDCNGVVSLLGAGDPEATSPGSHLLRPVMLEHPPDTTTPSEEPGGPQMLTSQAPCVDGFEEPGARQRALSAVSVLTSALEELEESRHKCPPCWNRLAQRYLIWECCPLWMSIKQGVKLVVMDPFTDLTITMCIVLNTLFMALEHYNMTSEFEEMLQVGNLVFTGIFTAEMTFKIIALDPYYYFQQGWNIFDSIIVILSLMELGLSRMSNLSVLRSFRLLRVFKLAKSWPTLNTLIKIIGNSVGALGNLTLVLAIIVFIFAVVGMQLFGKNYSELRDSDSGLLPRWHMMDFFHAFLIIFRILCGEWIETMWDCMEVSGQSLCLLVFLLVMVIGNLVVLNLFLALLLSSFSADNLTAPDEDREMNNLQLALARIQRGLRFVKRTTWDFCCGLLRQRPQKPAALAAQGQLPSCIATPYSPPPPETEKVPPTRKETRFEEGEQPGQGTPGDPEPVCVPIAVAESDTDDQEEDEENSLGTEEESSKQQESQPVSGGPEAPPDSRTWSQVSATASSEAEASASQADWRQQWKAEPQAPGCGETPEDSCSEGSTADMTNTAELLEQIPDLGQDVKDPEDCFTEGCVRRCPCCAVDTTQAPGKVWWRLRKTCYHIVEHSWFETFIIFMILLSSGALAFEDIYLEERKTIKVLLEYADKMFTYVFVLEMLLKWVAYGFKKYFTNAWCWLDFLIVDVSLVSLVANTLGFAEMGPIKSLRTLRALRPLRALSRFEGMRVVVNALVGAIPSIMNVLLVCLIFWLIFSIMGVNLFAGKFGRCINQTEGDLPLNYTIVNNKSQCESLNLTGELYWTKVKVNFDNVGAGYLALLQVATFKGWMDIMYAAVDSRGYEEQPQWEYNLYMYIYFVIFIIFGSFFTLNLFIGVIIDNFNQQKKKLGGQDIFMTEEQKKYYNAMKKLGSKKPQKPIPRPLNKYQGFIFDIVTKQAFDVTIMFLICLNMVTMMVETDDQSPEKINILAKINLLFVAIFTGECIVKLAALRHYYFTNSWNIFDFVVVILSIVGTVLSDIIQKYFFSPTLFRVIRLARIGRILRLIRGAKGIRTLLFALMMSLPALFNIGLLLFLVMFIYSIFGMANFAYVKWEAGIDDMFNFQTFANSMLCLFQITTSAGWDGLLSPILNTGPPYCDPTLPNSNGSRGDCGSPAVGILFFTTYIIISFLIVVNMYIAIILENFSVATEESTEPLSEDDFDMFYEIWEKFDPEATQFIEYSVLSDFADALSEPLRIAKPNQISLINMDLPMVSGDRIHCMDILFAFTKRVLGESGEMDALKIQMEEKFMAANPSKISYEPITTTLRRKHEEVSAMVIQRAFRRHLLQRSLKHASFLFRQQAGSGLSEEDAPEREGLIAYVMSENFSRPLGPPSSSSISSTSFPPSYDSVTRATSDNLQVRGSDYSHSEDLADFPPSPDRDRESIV

| Structure (SMILES) | inhibition at 3 µM [1, 3] | inhibition at 3 µM [1, 4] | inhibition at 1 µM [2] | inhibition at 10 µM (hNav1.1 (SCN1A)) | inhibition at 0.3 µM [2] |
| --- | --- | --- | --- | --- | --- |
| O=C1CC(COc2noc3ccc(-c4ccc(OC(F)(F)F)cc4)cc23)CN1 (stereo not drawn) [Example 46, 4-(((5-(4-(trifluoromethoxy)phenyl)benzo[d]isoxazol-3-yl)oxy)methyl)pyrrolidin-2-one] | 23.7% | 13.9% | 36.8% | 78.4% | – |
| FC(F)(F)Oc1ccc(-c2ccc3onc(OC[C@@H]4CCCN4)c3c2)cc1 [Example 108, (S)-3-(pyrrolidin-2-ylmethoxy)-5-(4-(trifluoromethoxy)phenyl)benzo[d]isoxazole] | 62.6% | 69.3% | 83.5% | 89.2% | 30.1% |
| Cc1nccn1CCOc1noc2ccc(-c3ccc(OC(F)(F)F)cc3)cc12 [Example 57, 3-(2-(2-methyl-1H-imidazol-1-yl)ethoxy)-5-(4-(trifluoromethoxy)phenyl)benzo[d]isoxazole] | 22.1% | 37.1% | 57.3% | 82.5% | 17% |
| FC(F)(F)Oc1ccc(-c2ccc3onc(OCCn4ccnc4)c3c2)cc1 [Example 55, 3-(2-(1H-imidazol-1-yl)ethoxy)-5-(4-(trifluoromethoxy)phenyl)benzo[d]isoxazole] | 15.1% | 5.13% | 59.9% | 79.8% | 45.4% |
| Cc1cccc(CNc2noc3ccc(-c4ccc(OC(F)(F)F)cc4)cc23)n1 [Example 129, N-((6-methylpyridin-2-yl)methyl)-5-(4-(trifluoromethoxy)phenyl)benzo[d]isoxazol-3-amine] | – | – | 67.5% | 33.5% | 34.3% |
| CN1CC(COc2noc3ccc(-c4ccc(OC(F)(F)F)cc4)cc23)CC1=O (stereo not drawn) [Example 56, 1-methyl-4-(((5-(4-(trifluoromethoxy)phenyl)benzo[d]isoxazol-3-yl)oxy)methyl)pyrrolidin-2-one] | 30.4% | 31.4% | 57.8% | 83.6% | 16.1% |
| Cc1cc(-c2ccc(OC(F)(F)F)cc2)cc2c(OCCN3CCCC3=O)noc12 [Example 88, 1-(2-((7-methyl-5-(4-(trifluoromethoxy)phenyl)benzo[d]isoxazol-3-yl)oxy)ethyl)pyrrolidin-2-one] | 20.8% | 19.5% | 47.7% | 66.7% | – |
| FC(F)(F)Oc1ccc(-c2ccc3onc(Oc4ccccn4)c3c2)cc1 [Example 125, 3-(pyridin-2-yloxy)-5-(4-(trifluoromethoxy)phenyl)benzo[d]isoxazole] | – | – | 41.8% | < 5% | – |
